pIC50: −log10 of the molar value.
Target: T1, Human Factor D (Homo sapiens, UniProt P00746)
T1 construct: purified from human serum; purchased Complement Technology, Inc; host or cells: human serum (natural protein, not recombinant)
Assay: Human Factor D Assay
Assay type: biochemical
Settings: Table 3; Human Factor D 80 nM, substrate Z-L-Lys-SBzl; read-out: (IC50 (Stars))
Method in brief: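 Serum-purified factor D (80 nM final) preincubated 5 min at room temperature with compound in 50 mM Tris, 1 M NaCl, pH 7.5. Reaction started with 100 μM Z-L-Lys-SBzl plus 100 μM DTNB; A405 read every 30 s for 30 min; IC50 by nonlinear regression of rates.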

T1 sequence (P00746 26-253): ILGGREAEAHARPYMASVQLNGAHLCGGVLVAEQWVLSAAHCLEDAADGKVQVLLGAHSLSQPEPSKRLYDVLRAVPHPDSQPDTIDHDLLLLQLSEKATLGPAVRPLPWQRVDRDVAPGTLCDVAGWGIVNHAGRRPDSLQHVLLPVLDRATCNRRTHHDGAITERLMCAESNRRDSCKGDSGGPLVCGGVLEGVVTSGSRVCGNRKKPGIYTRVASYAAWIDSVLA

Row | SMILES | pIC50
1 | CC(=O)c1nn(CC(=O)N2C[C@H]3C[C@H]3[C@H]2C(=O)Nc2nc(Br)ccc2C2CC2)c2ccc(O[C@@H]3CO[C@H]4[C@@H]3OC[C@H]4O)cc12 [Compound 184, (1R,2S,5S)-3-(2-(3-Acetyl-5-((3R,3aR,6R,6aR)-6-hydroxyhexahydrofuro[3,2-b]furan-3-yloxy)-1H-indazol-1-yl)acetyl)-N-(6-bromo-3-cyclopropylpyridin-2-yl)-3-azabicyclo[3.1.0]hexane-2-carboxamide] | > 6.00
2 | CC(=O)c1nn(CC(=O)N2C[C@H]3C[C@H]3[C@H]2C(=O)Nc2nc(Br)ccc2C)c2ccc(O[C@@H]3CO[C@H]4[C@@H]3OC[C@H]4O)cc12 [Compound 185, (1R,2S,5S)-3-(2-(3-Acetyl-5-((3R,3aR,6R,6aR)-6-hydroxyhexahydrofuro[3,2-b]furan-3-yloxy)-1H-indazol-1-yl)acetyl)-N-(6-bromo-3-methylpyridin-2-yl)-3-azabicyclo[3.1.0]hexane-2-carboxamide] | > 6.00
3 | Cc1cccc(NC(=O)[C@@H]2[C@H]3CC[C@H](C3)N2C(=O)Cn2cc(C(N)=O)c3cc(OCS(=O)(=O)NC(C)(C)C)ccc32)n1 [Compound 186, 5-((N-(tert-butyl)sulfamoyl)methoxy)-1-(2-((1R,3S,4S)-3-((6-methylpyridin-2-yl)carbamoyl)-2-azabicyclo[2.2.1]heptan-2-yl)-2-oxoethyl)-1H-indole-3-carboxamide] | < 5.00
4 | Cc1cccc(NC(=O)[C@@H]2[C@H]3CC[C@H](C3)N2C(=O)Cn2cc(C(N)=O)c3cc(OCS(N)(=O)=O)ccc32)n1 [Compound 187, 1-(2-((1R,3S,4S)-3-((6-Methylpyridin-2-yl)carbamoyl)-2-azabicyclo[2.2.1]heptan-2-yl)-2-oxoethyl)-5-(sulfamoylmethoxy)-1H-indole-3-carboxamide] | < 5.00
5 | CC(=O)c1nn(CC(=O)N2C[C@H](F)C[C@H]2C(=O)Nc2cccc(Br)n2)c2ccc(OC3CCOC3)cc12 (stereo partly drawn) [Compound 193, (2S,4R)-1-(2-(3-acetyl-5-((tetrahydrofuran-3-yl)oxy)-1H-indazol-1-yl)acetyl)-N-(6-bromopyridin-2-yl)-4-fluoropyrrolidine-2-carboxamide] | > 6.00
6 | CC(=O)c1nn(CC(=O)N2C[C@H](F)C[C@H]2C(=O)Nc2cccc(Br)n2)c2ccc(OC3CCCC3)cc12 [Compound 194, (2S,4R)-1-(2-(3-acetyl-5-(cyclopentyloxy)-1H-indazol-1-yl)acetyl)-N-(6-bromopyridin-2-yl)-4-fluoropyrrolidine-2-carboxamide] | > 6.00
7 | CC(=O)c1nn(CC(=O)N2C[C@H](F)C[C@H]2C(=O)Nc2cccc(Br)n2)c2ccc(O[C@@H]3CO[C@H]4[C@@H]3OC[C@H]4O)cc12 [Compound 200, (2S,4R)-1-(2-(3-acetyl-5-(((3R,3aR,6R,6aR)-6-hydroxy-hexahydrofuro[3,2-b]furan-3-yl)oxy)-1H-indazol-1-yl)acetyl)-N-(6-bromopyridin-2-yl)-4-fluoropyrrolidine-2-carboxamide] | > 6.00
8 | CC(=O)c1nn(CC(=O)N2C[C@H](F)C[C@H]2C(=O)Nc2cccc(Br)n2)c2cc(OCP(=O)(O)O)ccc12 [Compound 201, (((3-acetyl-1-(2-((2S,4R)-2-((6-bromopyridin-2-yl)carbamoyl)-4-fluoropyrrolidin-1-yl)-2-oxoethyl)-1H-indazol-6-yl)oxy)methyl)phosphonic acid] | > 6.00
9 | CC(=O)c1nn(CC(=O)N2[C@H](C(=O)Nc3cccc(Br)n3)C[C@@]3(C)C[C@@H]23)c2cc(OCP(=O)(O)O)ccc12 [Compound 250, (((3-acetyl-1-(2-((1R,3S,5R)-3-((6-bromopyridin-2-yl)carbamoyl)-5-methyl-2-azabicyclo[3.1.0]hexan-2-yl)-2-oxoethyl)-1H-indazol-6-yl)oxy)methyl)phosphonic acid] | > 6.00
10 | CC(=O)c1cn(CC(=O)N2C[C@H](F)C[C@H]2C(=O)Nc2cccc(-c3ccccc3Cl)c2F)c2ccc(OCC[S+]([O-])CC(C)(CO)CO)cc12 (stereo partly drawn) [Compound 251, (2S,4R)-1-(2-(3-acetyl-5-(2-(3-hydroxy-2-(hydroxymethyl)-2-methyl-propylsulfinyl)ethoxy)-1H-indol-1-yl)acetyl)-N-(2′-chloro-2-fluorobiphenyl-3-yl)-4-fluoropyrrolidine-2-carboxamide] | > 6.00
11 | CC(=O)c1cn(CC(=O)N2C[C@H](F)C[C@H]2C(=O)Nc2cccc(-c3ccccc3Cl)c2F)c2ccc(OCC[S+]([O-])CC3(C)COC3)cc12 (stereo partly drawn) [Compound 252, (2S,4R)-1-(2-(3-acetyl-5-(2-((3-methyloxetan-3-yl)methylsulfinyl)ethoxy)-1H-indol-1-yl)acetyl)-N-(2′-chloro-2-fluorobiphenyl-3-yl)-4-fluoropyrrolidine-2-carboxamide] | > 6.00
12 | CC(=O)c1cn(CC(=O)N2C[C@H](F)C[C@H]2C(=O)Nc2cccc(-c3ccccc3Cl)c2F)c2ccc(OCCS(=O)(=O)CC3(C)COC3)cc12 [Compound 253, (2S,4R)-1-(2-(3-acetyl-5-(2-((3-methyloxetan-3-yl)methylsulfonyl)ethoxy)-1H-indol-1-yl)acetyl)-N-(2′-chloro-2-fluorobiphenyl-3-yl)-4-fluoropyrrolidine-2-carboxamide] | > 6.00

— patent publication US10385097B2, “Ether compounds for treatment of medical disorders” (Achillion Pharmaceuticals, Inc., priority 2015, dated 2019)
